Data reported in patent US7749534B2, “Pharmaceutical composition comprising oxoplatin, the salts and derivatives thereof” (Riemser Arzneimittel AG, priority 2003, dated 2010).

Key:
panel of cell lines = test: Cytotoxic activity of TRAXO, summary over 19 cell lines; assay type: cell-based, human; conditions: for sensitivity of cell lines: T-47D and BxPC3
Experimental: trans-Oxoplatin was tested on a panel of cell lines, using double steps and an initial concentration of 40 μg/ml. As the IC50 values were not reached in most cases, cell survival at the highest concentration is indicated.
Cell lines sensitive to cis-oxoplatin, such as T-47D and BxPC3, are non-sensitive to TRAXO. The salts of the trans-oxoplatin compounds may have a different therapeutic potential and different effectiveness against particular human cancer cells, cell lines and tumors.

BxPC3 Pancreas = test: Formazan test, cis-oxoplatin vs cis-oxoplatin Ca; assay type: cell-based, human; conditions: Table 4, formazan test
Experimental: (§1) The effect of cis-oxoplatin Ca and cis-oxoplatin was compared on 10 cell lines (Table 4).
(§2) (IC50 values specified in μg/ml; the test was performed as a formazan test).

SW480 Colon = test: Formazan test, cis-oxoplatin vs cis-oxoplatin Ca; assay type: cell-based, human; conditions: Table 4, formazan test
Experimental: as §1, §2

T47D Breast = test: Formazan test, cis-oxoplatin vs cis-oxoplatin Ca; assay type: cell-based, human; conditions: Table 4, formazan test
Experimental: as §1, §2

BT20 Breast = test: Formazan test, cis-oxoplatin vs cis-oxoplatin Ca; assay type: cell-based, human; conditions: Table 4, formazan test
Experimental: as §1, §2

MDA-MB-435 Breast = test: Formazan test, cis-oxoplatin vs cis-oxoplatin Ca; assay type: cell-based, human; conditions: Table 4, formazan test
Experimental: as §1, §2

CaCo-2 Colon = test: Formazan test, cis-oxoplatin vs cis-oxoplatin Ca; assay type: cell-based, human; conditions: Table 4, formazan test
Experimental: as §1, §2

Colo205 Colon = test: Formazan test, cis-oxoplatin vs cis-oxoplatin Ca; assay type: cell-based, human; conditions: Table 4, formazan test
Experimental: as §1, §2

HT29 Colon = test: Formazan test, cis-oxoplatin vs cis-oxoplatin Ca; assay type: cell-based, human; conditions: Table 4, formazan test
Experimental: as §1, §2

Du145 Prostate = test: Formazan test, cis-oxoplatin vs cis-oxoplatin Ca; assay type: cell-based, human; conditions: Table 4, formazan test
Experimental: as §1, §2

CRO2B Carcinoid = test: Formazan test, cis-oxoplatin vs cis-oxoplatin Ca; assay type: cell-based, human; conditions: Table 4, formazan test
Experimental: as §1, §2

10 cell lines = test: Formazan test, mean over 10 cell lines (Table 4); assay type: cell-based, human; conditions: mean ±SEM over the 10 cell lines of Table 4
Experimental: as §1, §2

[1] = Platinum in the kidneys after injection; assay type: in vivo; conditions: 20 days after injection
Description: A pharmaceutical agent comprising cis-diammoniumdichloro-trans-dihydroxoplatinum(IV) and/or its salts or derivatives incorporated in the base materials defined according to the invention enables effective treatment of tumors. […] In a particularly preferred fashion, salts are used, especially potassium, lithium, sodium, magnesium, barium, zinc, manganese, silver, copper, vanadium or calcium salts, wherein the anions can be e.g. chlorides, sulfates, phosphates, nitrates or carbonates or others. Other elements capable of forming salts are well-known to those skilled in the art, e.g. all elements from the main groups I to V of the Periodic Table of the Elements, as well as the elements from the subgroups I to VIII; all of the above-mentioned elements of the Periodic Table of the Elements can form cis-oxoplatinum salts.

α-chymotrypsin = test: Protease inhibition; assay type: biochemical; conditions: at concentrations comparable to cisplatin
Description: (§3) The pharmaceutical agents according to the invention, which can be produced using said kit, are capable of binding directly to a DNA. The cis-platinum compounds according to the invention have an octahedral configuration. Consequently, cis-oxoplatin in the meaning of the invention can form both intra- and inter-strand DNA complexes. Due to the specific structure of cis-oxoplatin, in contrast to cisplatin, the compounds of the invention form multiple bonds with DNA strands. Owing to the inter-strand-crosslinker complexes and intra-strand-crosslinker complexes, the compounds of the invention show advantageous specific cytostatic effects in anti-tumor therapy. The DNA adducts of the compounds according to the invention show higher charge of the platinum central atom and further have two additional ligands bound to this center. […] Potency and effectiveness of the inventive pharmaceutical agents comprising cis-oxo-platinum(IV) are largely independent of the form of application of the agents. The agents can be administered perorally, orally, rectally, subcutaneously, intramuscularly, intravenously and intraperitoneally.

trypsin = molecular target: T1, trypsin (Bos taurus, UniProt P00760); test: Protease inhibition; assay type: biochemical; conditions: at concentrations comparable to cisplatin
T1 construct: gene PRSS1
T1 sequence (P00760 24-246): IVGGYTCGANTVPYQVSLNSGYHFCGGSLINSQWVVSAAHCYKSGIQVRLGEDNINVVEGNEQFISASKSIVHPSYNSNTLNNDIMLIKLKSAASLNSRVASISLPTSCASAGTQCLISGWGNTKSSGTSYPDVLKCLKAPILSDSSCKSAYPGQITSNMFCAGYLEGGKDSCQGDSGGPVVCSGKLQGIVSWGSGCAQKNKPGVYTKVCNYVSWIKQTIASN
Description: as §3

[2] = system: HT29, SW480, SK-OV4, PC3, SIM, CaCo-2, DU145 and CRO2B cells; test: Growth inhibition, cis-oxoplatin vs sodium salt, summary over cell lines (Table 2); assay type: cell-based, human; conditions: CaCo-2, DU145, CRO2B
Experimental: (§4) Growth inhibition tests on various human cell lines show the different activities of cisplatin, cis-oxoplatin and oxaliplatin. […] The following Table illustrates the results produced with cisplatin, oxoplatin, carboplatin and oxaliplatin (the values specified are IC50 values in μg/ml, i.e., the concentration where 50% of the cells survive, nd=not determined; res=resistant=non-sensitive or IC50 value cannot be determined at a concentration of up to 40 μg/ml; IC=inhibition concentration).
The activities differ according to the cell line.

various human cell lines = test: Growth inhibition tests, overall comparison (Table 1 panel); assay type: cell-based
Experimental: as §4

[3] = system: tumor rats developing both internal and external tumors; test: Therapeutic effect of tablets, ointments and infusion solutions in tumor rats; assay type: in vivo
Experimental: In a first test series, tablets, ointments and infusion solutions were tested on various tumor rats developing both internal and external tumors. The other drugs according to the invention were tested in additional, subsequent test series. […] In a preparation of 5 mg/ml solution, the infusion solution included 5 mg of cis-oxoplatin, 9 mg of benzyl alcohol, 2 mg of Polysorbate 80, 650 mg of 70% sorbitol solution, and 500 mg of water.
The tablets were administered in the form of a feed admixture. Infusion of the infusion solution was effected according to common laboratory practice via infusion tube.
Tumor effectiveness was established by weight determination and measuring the outer areas of degenerate tissue. As a comparison, the tumor effectiveness was also tested using an infusion solution comprising oxoplatin in sodium chloride solution and by means of direct oral administration of oxoplatin and by applying oxoplatin powder placed on the tumor area on the back of the laboratory animal by means of a bandage. Furthermore, tablets comprising cis-oxoplatin and sodium hydrogen carbonate or sodium alginate were tested.

SMILES	sensitivity of cell lines (panel of cell lines)	IC50 (BxPC3 Pancreas) [µg/mL]	IC50 (SW480 Colon) [µg/mL]	IC50 (T47D Breast) [µg/mL]	IC50 (BT20 Breast) [µg/mL]	IC50 (MDA-MB-435 Breast) [µg/mL]	IC50 (CaCo-2 Colon) [µg/mL]	IC50 (Colo205 Colon) [µg/mL]	IC50 (HT29 Colon) [µg/mL]	IC50 (Du145 Prostate) [µg/mL]	IC50 (CRO2B Carcinoid) [µg/mL]	level of platinum compound in the kidneys [1]	other results
[NH2][Pt]([NH2])([OH])([OH])([Cl])[Cl] [TRAXO, trans-Oxoplatin]	non-sensitive	–	–	–	–	–	–	–	–	–	–	–	activity against cell lines (panel of cell lines; SW 620, G-292, HOS, ACHN, HL-60, WI-38): considerable activity
N.N.N.N.[Ca+2].[O-][Pt]([OH])([Cl])[Cl].[O-][Pt]([OH])([Cl])[Cl] [Oxoplatin Ca, cis-oxoplatin calcium salt]	–	30.0	2.5	3.6	3.5	12.0	0.87	13.5	8.0	14.5	2.20	–	IC50 (±SEM) mean value for all cell lines (10 cell lines): 9.1 ± 2.8 µg/mL
N.N.[Cl][Pt][Cl] [Cis-platin, cisplatin, reference compound]	–	–	–	–	–	–	–	–	–	–	–	approximately as high as one hour following injection	–
N.N.[Cl-].[Cl-].[OH-].[OH-].[Pt+4] [cis-Oxoplatin, cis-diammoniumdichloro-trans-dihydroxoplatinum(IV)]	sensitive	26.0	8.2	2.5	3.75	16.5	1.52	29.0	13.5	19.0	3.0	largely free of said compound	inhibition of proteases (α-chymotrypsin): does not inhibit; inhibition of proteases (trypsin): does not inhibit; IC50 values of these cells (mean) [2]: 10.5 ± 6.4 µg/mL; activity compared with oxaliplatin and carboplatin (various human cell lines): activity similar to that of oxaliplatin, but higher activity than carboplatin; elimination [3]: rapidly eliminated; irritations in the surrounding tissue [3]: irritations in the surrounding tissue; tumor growth ([3]; no base materials): reduction of tumor growth
